In paper PMC4806491, “The milk-derived fusion peptide, ACFP, suppresses the growth of primary human ovarian cancer cells by regulating apoptotic gene expression and signaling pathways” (BMC Cancer, 2016):
Like-named read-outs stand apart in the source and are kept apart here. Positions of bridges follow the written chain, without caps; N, C: chain ends. Residues, ends and D or L forms follow the SMILES beside them.

Test system: primary ovarian cancer cells
Conditions: Low dose 5×10^-6 g/L, 48 h
Description: We utilized cDNA microarrays to observe the effect of ACFP on gene expression in primary ovarian cancer cells. Cells were treated with 0 (the vehicle group, as control), 5 × 10^6 g/L and 5 × 10^3 g/L ACFP, respectively, and cultured for 48 h at 37 °C in 5 % CO2. Cells were later digested and collected for total RNA extraction using Trizol. The RNA concentrations and purities were detected with a spectrophotometer. The experiments were performed in duplicate on a single total RNA preparation from the cells. Signal values were presented as the mean value of two replicate experiments. RNA samples were used to generate human whole genome expression profiling microarray (Yeli Bioscience Co., Ltd.; Shanghai, China). RNA was subsequently converted into digoxigenin-labeled complementary RNA and hybridized to a human genome microarray system (Human OneArray Microarray, from Phalanx Biotech Group, Taiwan). The chips were scanned by a GeeDom® LuxScan 10 K microarray scanner. LuxScan3.0 software was used to extract probe fluorescence signals and analyze images. Finally, the original data were processed by normalizing.

Question: Which “GTF2IP1 Ratio (ACFP/control)” value (NM-002970) does the source give for `CC[C@H](C)[C@@H]1NC(=O)[C@H](CO)NC(=O)[C@@H]2CCCN2C(=O)[C@H](C)NC(=O)CNC(=O)[C@H](CC(C)C)NC(=O)[C@H](CCCCN)NC(=O)[C@H](CCCCN)NC(=O)[C@H](CCSC)NC(=O)[C@H](CCCNC(=N)N)NC(=O)[C@H](Cc2c[nH]c3ccccc23)NC(=O)[C@H](CCC(N)=O)NC(=O)[C@H](Cc2c[nH]c3ccccc23)NC(=O)[C@H](CCCNC(=N)N)NC(=O)[C@H](CCCNC(=N)N)NC(=O)[C@@H](NC(=O)[C@H](CCCCN)NC(=O)[C@@H](N)Cc2ccccc2)CSSC[C@@H](C(=O)N[C@H](C(=O)N[C@@H](CCCNC(=N)N)C(=O)N[C@@H](CCCNC(=N)N)C(=O)N[C@@H](C)C(=O)N[C@@H](Cc2ccccc2)C(=O)NCC(=O)NCC(=O)NCC(=O)NCC(=O)N[C@@H](CO)C(=O)N2CCC[C@H]2C(=O)NCC(=O)N2CCC[C@H]2C(=O)N[C@H](C(=O)N2CCC[C@H]2C(=O)N[C@@H](CC(N)=O)C(=O)O)[C@@H](C)CC)C(C)C)NC(=O)[C@H]([C@@H](C)O)NC1=O` [ACFP] (H-FKCRRWQWRMKKLGAPSITCVRRAFGGGGSPGPIPN-OH; disulfide 3-20; N-terminus and C-terminus assumed) here?
Answer: 0.47

Question: And the “IGFBP5 Ratio (ACFP/control)” value (NM-003488)?
Answer: 0.45

Question: And the “MYLK Ratio (ACFP/control)” value (NM-004638)?
Answer: 0.33

Question: What about the “NKX3-1 Ratio (ACFP/control)” value (NM-004824) of the same molecule?
Answer: 2.8

Question: What about the “PLA2G5 Ratio (ACFP/control)” value (NM-005322) of the same molecule?
Answer: 0.36

Question: What about the “POLH Ratio (ACFP/control)” value (NM-005429) of the same molecule?
Answer: 0.33

Question: What about the “PSMA1 Ratio (ACFP/control)” value (NM-005682) of the same molecule?
Answer: 0.39

Question: And the “STAT5B Ratio (ACFP/control)” value (NM-006777)?
Answer: 3.24

Question: And the “STAT6 Ratio (ACFP/control)” value (NM-006778)?
Answer: 2.06

Question: And the “UPP1 Ratio (ACFP/control)” value (NM-007378)?
Answer: 0.48

Question: What about the “TNFSF18 Ratio (ACFP/control)” value (NM-008995) of the same molecule?
Answer: 0.49

Question: And the “MAP4K4 Ratio (ACFP/control)” value (NM-009448)?
Answer: 0.36

Question: What about the “BTF/BCLAF1 Ratio (ACFP/control)” value (NM-009774) of the same molecule?
Answer: 3.25

Question: And the “TMEFF1 Ratio (ACFP/control)” value (NM-016522)?
Answer: 3.33

Question: And the “RAB18 Ratio (ACFP/control)” value (NM-022931)?
Answer: 0.30

Question: And the “TCF/LEF1 Ratio (ACFP/control)” value (NM-051176)?
Answer: 0.36

Question: And the “PINX1 Ratio (ACFP/control)” value (NM-054984)?
Answer: 0.45

Question: And the “RINT-1 Ratio (ACFP/control)” value (NM-060561)?
Answer: 0.32

Question: What about the “C17orf37 Ratio (ACFP/control)” value (NM-084299) of the same molecule?
Answer: 0.39

Question: What about the “ZNF512 Ratio (ACFP/control)” value (NM-084450) of the same molecule?
Answer: 0.31

Question: And the “AKT1 Ratio (ACFP/control)” value (NM_000207)?
Answer: 0.29

Question: And the “ARHE Ratio (ACFP/control)” value (NM_000390)?
Answer: 2.99

Question: What about the “BAG1 Ratio (ACFP/control)” value (NM_000573) of the same molecule?
Answer: 0.48

Question: And the “BAX Ratio (ACFP/control)” value (NM_000581)?
Answer: 3.73

Question: And the “BCL-xl Ratio (ACFP/control)” value (NM_000598)?
Answer: 0.28

Question: What about the “C1QG Ratio (ACFP/control)” value (NM_000714) of the same molecule?
Answer: 2.02

Question: And the “CASP3 Ratio (ACFP/control)” value (NM_000836)?
Answer: 3.72

Question: What about the “CCNB1 Ratio (ACFP/control)” value (NM_000891, cyclinB1) of the same molecule?
Answer: 0.30

Question: And the “TNFRSF8 Ratio (ACFP/control)” value (NM_000943, first entry)?
Answer: 2.05

Question: What about the “TNFRSF8 Ratio (ACFP/control)” value (NM_000943, second entry) of the same molecule?
Answer: 2.02

Question: And the “CDC25C Ratio (ACFP/control)” value (NM_000995)?
Answer: 0.29

Question: And the “CDKN1A Ratio (ACFP/control)” value (NM_001026)?
Answer: 3.24

Question: What about the “CDKN1A/p21 Ratio (ACFP/control)” value (NM_001026, second entry) of the same molecule?
Answer: 3.24

Question: What about the “CKS2 Ratio (ACFP/control)” value (NM_001164) of the same molecule?
Answer: 3.67

Question: And the “DVL1 Ratio (ACFP/control)” value (NM_001855)?
Answer: 3.58

Question: And the “GRK4 Ratio (ACFP/control)” value (NM_002868)?
Answer: 0.42

Question: And the “GRK5 Ratio (ACFP/control)” value (NM_002869)?
Answer: 0.47

Question: And the “GRK6 Ratio (ACFP/control)” value (NM_002870)?
Answer: 0.49

Question: And the “GSTM4 Ratio (ACFP/control)” value (NM_002948)?
Answer: 2.25

Question: What about the “GSTM5 Ratio (ACFP/control)” value (NM_002949) of the same molecule?
Answer: 3.55

Question: What about the “IRF7 Ratio (ACFP/control)” value (NM_003665) of the same molecule?
Answer: 3.13

Question: What about the “ITGA5 Ratio (ACFP/control)” value (NM_003678) of the same molecule?
Answer: 0.36

Question: What about the “PKIA Ratio (ACFP/control)” value (NM_005569) of the same molecule?
Answer: 2.52

Question: What about the “MAPK3/ERK1 Ratio (ACFP/control)” value (NM_005595) of the same molecule?
Answer: 0.36

Question: And the “MAPK8/JNK1 Ratio (ACFP/control)” value (NM_005599)?
Answer: 2.04

Question: And the “MAPK13/p38 delta Ratio (ACFP/control)” value (NM_005603)?
Answer: 2.91

Question: And the “PSMB8 Ratio (ACFP/control)” value (NM_005696)?
Answer: 2.97

Question: What about the “TNFRSF1A Ratio (ACFP/control)” value (NM_007132, first entry) of the same molecule?
Answer: 3.50

Question: And the “TNFRSF1A Ratio (ACFP/control)” value (NM_007132, second entry)?
Answer: 3.50

Question: What about the “ZNF12 Ratio (ACFP/control)” value (NM_007559) of the same molecule?
Answer: 2.07

Question: What about the “BAT5 Ratio (ACFP/control)” value (NM_007920) of the same molecule?
Answer: 3.66

Question: What about the “PABPN1 Ratio (ACFP/control)” value (NM_008106) of the same molecule?
Answer: 3.71

Question: And the “TNFRSF10B Ratio (ACFP/control)” value (NM_008795)?
Answer: 2.43

Question: And the “STK17B Ratio (ACFP/control)” value (NM_009262)?
Answer: 2.01

Question: What about the “TRAF4 Ratio (ACFP/control)” value (NM_009618) of the same molecule?
Answer: 3.34

Question: What about the “USP34 Ratio (ACFP/control)” value (NM_009736) of the same molecule?
Answer: 3.49

Question: And the “GOLGA5 Ratio (ACFP/control)” value (NM_009950)?
Answer: 2.46

Question: And the “SUI1 Ratio (ACFP/control)” value (NM_010209)?
Answer: 2.89

Question: What about the “SPINT2 Ratio (ACFP/control)” value (NM_010653) of the same molecule?
Answer: 3.58

Question: And the “PIK3R5 Ratio (ACFP/control)” value (NM_023533)?
Answer: 0.39

Question: What about the “CARD10 Ratio (ACFP/control)” value (NM_029775) of the same molecule?
Answer: 2.43

Question: And the “FLJ39616 Ratio (ACFP/control)” value (NM_051275)?
Answer: 3.34

Question: And the “GNG12 Ratio (ACFP/control)” value (NM_055970)?
Answer: 3.49

Question: And the “BCORL1 Ratio (ACFP/control)” value (NM_063035)?
Answer: 0.35

Question: And the “CARD14 Ratio (ACFP/control)” value (NM_079092)?
Answer: 2.13

Question: And the “BCL2L14 Ratio (ACFP/control)” value (NM_079370)?
Answer: 2.44

Question: What about the “FLJ13848 Ratio (ACFP/control)” value (NM_079829) of the same molecule?
Answer: 3.28

Question: And the “SNARK Ratio (ACFP/control)” value (NM_081788)?
Answer: 3.08

Question: What about the “C1QTNF6 Ratio (ACFP/control)” value (NM_114904, first entry) of the same molecule?
Answer: 3.57

Question: And the “C1QTNF6 Ratio (ACFP/control)” value (NM_114904, second entry)?
Answer: 3.43

Question: And the “LOC441241 Ratio (ACFP/control)” value (NM_441241)?
Answer: 3.48
